Drawing on BindingDB's records for doi:10.1016/S0960-894X(96)00609-9 (1997), this text covers IC50 for nine molecules.

The target of assay [1] is Gastrin/cholecystokinin type B receptor (Cavia porcellus). The experiment in a line: Inhibition of [125I]Cholecystokinin-8 binding to Cholecystokinin type B receptor of guinea pig cerebral cortical membranes.
Assay [2] is described as follows: Inhibition of [125I]-Cholecystokinin-8 (125I-CCK-8) binding to Cholecystokinin type B receptor of guinea pig cerebral cortical membranes.

Regarding `CC(=O)c1cccc(NC(=O)NC2N=C(c3ccccc3F)c3cccc(C)c3N(CC(=O)N3CC4CCC(CC4)C3)C2=O)c1` (centres undefined) [1-(3-Acetyl-phenyl)-3-[1-[2-(3-aza-bicyclo[3.2.2]non-3-yl)-2-oxo-ethyl]-5-(2-fluoro-phenyl)-9-methyl-2-oxo-2,3-dihydro-1H-benzo[e][1,4]diazepin-3-yl]-urea], the IC50 – broadly, the concentration that gives 50% inhibition – in assay [1] was determined as 0.84 nM.

As to `Cc1cccc2c1N(CC(=O)N1CC3CCC(CC3)C1)C(=O)C(NC(=O)Nc1cccc(Br)c1)N=C2c1ccccc1F` (centres undefined) [1-[1-[2-(3-Aza-bicyclo[3.2.2]non-3-yl)-2-oxo-ethyl]-5-(2-fluoro-phenyl)-9-methyl-2-oxo-2,3-dihydro-1H-benzo[e][1,4]diazepin-3-yl]-3-(3-bromo-phenyl)-urea], the half-maximal inhibitory concentration (IC50) in assay [1] stood at 1.8 nM.

In assay [1], `Cc1cccc2c1N(CC(=O)N1CC3CCC(CC3)C1)C(=O)C(NC(=O)Nc1cccc(Cl)c1)N=C2c1ccccc1F` (centres undefined) [1-[1-[2-(3-Aza-bicyclo[3.2.2]non-3-yl)-2-oxo-ethyl]-5-(2-fluoro-phenyl)-9-methyl-2-oxo-2,3-dihydro-1H-benzo[e][1,4]diazepin-3-yl]-3-(3-chloro-phenyl)-urea] had an IC50 of 2 nM.

`COc1cccc(NC(=O)NC2N=C(c3ccccc3F)c3cccc(C)c3N(CC(=O)N3CC4CCC(CC4)C3)C2=O)c1` (centres undefined) [1-[1-[2-(3-Aza-bicyclo[3.2.2]non-3-yl)-2-oxo-ethyl]-5-(2-fluoro-phenyl)-9-methyl-2-oxo-2,3-dihydro-1H-benzo[e][1,4]diazepin-3-yl]-3-(3-methoxy-phenyl)-urea] gave a concentration for half-maximal inhibition (IC50) in assay [1] of 1 nM.

The molecule `CSc1cccc(NC(=O)NC2N=C(c3ccccc3F)c3cccc(C)c3N(CC(=O)N3CC4CCC(CC4)C3)C2=O)c1` (centres undefined) [1-[1-[2-(3-Aza-bicyclo[3.2.2]non-3-yl)-2-oxo-ethyl]-5-(2-fluoro-phenyl)-9-methyl-2-oxo-2,3-dihydro-1H-benzo[e][1,4]diazepin-3-yl]-3-(3-methylsulfanyl-phenyl)-urea] displayed an IC50 in assay [1] of 0.37 nM.

Consider `Cc1cccc2c1N(CC(=O)N1CC3CCC(CC3)C1)C(=O)C(NC(=O)Nc1cccc(-c3nnn[nH]3)c1)N=C2c1ccccc1F` (centres undefined) [1-[1-[2-(3-Aza-bicyclo[3.2.2]non-3-yl)-2-oxo-ethyl]-5-(2-fluoro-phenyl)-9-methyl-2-oxo-2,3-dihydro-1H-benzo[e][1,4]diazepin-3-yl]-3-[3-(1H-tetrazol-5-yl)-phenyl]-urea], for which, in assay [2], the IC50 came to 6.4 nM.

Consider `Cc1cccc(NC(=O)NC2N=C(c3ccccc3F)c3cccc(C)c3N(CC(=O)N3CC4CCC(CC4)C3)C2=O)c1` (centres undefined) [1-[1-[2-(3-Aza-bicyclo[3.2.2]non-3-yl)-2-oxo-ethyl]-5-(2-fluoro-phenyl)-9-methyl-2-oxo-2,3-dihydro-1H-benzo[e][1,4]diazepin-3-yl]-3-m-tolyl-urea], for which the IC50 in assay [1] is 0.47 nM.

As to `Cc1cccc2c1N(CC(=O)N1CC3CCC(CC3)C1)C(=O)C(NC(=O)Nc1cccc(C(=O)O)c1)N=C2c1ccccc1F` (centres undefined) [3-{3-[1-[2-(3-Aza-bicyclo[3.2.2]non-3-yl)-2-oxo-ethyl]-5-(2-fluoro-phenyl)-9-methyl-2-oxo-2,3-dihydro-1H-benzo[e][1,4]diazepin-3-yl]-ureido}-benzoic acid], in assay [1], the half-inhibitory concentration (IC50) stood at 0.96 nM.

For the molecule `Cc1cccc(NC(=O)NC2N=C(c3ccccc3F)c3ccccc3N(CC(=O)N3CC4CCC(CC4)C3)C2=O)c1` (centres undefined) [FR-175985], in assay [1], the IC50 was 0.087 nM.
